From publication PMC5011342, “A high throughput drug screening assay to identify compounds that promote oligodendrocyte differentiation using acutely dissociated and purified oligodendrocyte precursor cells” (BMC Research Notes, 2016)
Like-named read-outs stand apart in the source and are kept apart here.

Columns and labels:
[1] = tested on: acutely dissociated and purified rat OPCs; assay: Acute OL differentiation assay (MBP expression/cell, immunofluorescent image quantification); type: cell-based; settings: sheet "All OLga data"; for activation at 2 µM / activation at 10 µM / activation at 0.4 µM: Rattus norvegicus
Procedure, shortened: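 This acute differentiation assay used purified rat OPCs from postnatal day 6–7 pups, seeded into PDL/laminin-coated 96-well plates in differentiation medium lacking PDGF and FGF. Compounds were applied in quadruplicate after a 1–2 h preincubation at 37 °C, 10 % CO2, with 0.1 % DMSO negative and 40 ng/ml T3 positive controls in eight wells. After fixation on DIV4, anti-MBP immunofluorescence images yielded MBP expression/cell.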

expanded OPCs = assay: cells; settings: for viability at 0.1 µM / viability at 1 µM / viability at 10 µM: Rattus norvegicus, 72 h
Procedure, shortened: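 Toxicity screen: compounds added at 0.1, 1 and 10 µM to PDGF-AA-expanded OPCs in 96-well plates, 3-day incubation at 37 °C, 10% CO2, then alamarBlue 1:10 for 4 h with fluorescence readout. Results set screening doses of 10/2, 2/0.4 or 0.4/0.08 µM.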

[2] = 2 uM test compound, relative to quetiapine, read-out: OL differentiation, 2 uM (% Quet)
[3] = read-out: 0.1 µM (% DMSO), alamarBlue viability of expanded OPCs, compound at 0.1 µM, sheet All Tox data
[4] = read-out: 1 µM (% DMSO), alamarBlue viability of expanded OPCs, compound at 1 µM, sheet All Tox data
[5] = read-out: 10 µM (% DMSO), alamarBlue viability of expanded OPCs, compound at 10 µM, sheet All Tox data
[6] = 0.4 uM test compound, relative to quetiapine, read-out: OL differentiation, 0.4 uM (% Quet)
[7] = read-out: 0.1 µM (% DMSO), alamarBlue viability, NCC library compound at 0.1 µM, sheet "All Tox data"
[8] = read-out: 1 µM (% DMSO), alamarBlue viability, NCC library compound at 1 µM, sheet "All Tox data"
[9] = read-out: 10 µM (% DMSO), alamarBlue viability, NCC library compound at 10 µM, sheet "All Tox data"
[10] = test compound at 2 uM, NCC library screen, relative to quetiapine, read-out: 2 uM (% Quet)
[11] = test compound at 10 uM, NCC library screen, relative to quetiapine, read-out: 10 uM (% Quet)
[12] = alamarBlue viability of expanded OPCs, compound at 0.1 µM, relative to DMSO control
[13] = alamarBlue viability of expanded OPCs, compound at 1 µM, relative to DMSO control
[14] = alamarBlue viability of expanded OPCs, compound at 10 µM, relative to DMSO control
[15] = test compound at 0.4 uM, MBP expression relative to quetiapine, NCC library screen, read-out: 0.4 uM (% Quet)
[16] = test compound at 2 uM, MBP expression relative to quetiapine, NCC library screen, read-out: 2 uM (% Quet)

| SMILES | activation at 2 µM [1, 2] | activation at 0.4 µM [1, 6] | viability at 0.1 µM (expanded OPCs; [7]) | viability at 1 µM (expanded OPCs; [8]) | viability at 10 µM (expanded OPCs; [9]) | activation at 2 µM [1, 10] | 0.1 µM (% DMSO) (expanded OPCs; [12]) | 1 µM (% DMSO) (expanded OPCs; [13]) | 10 µM (% DMSO) (expanded OPCs; [14]) | activation at 0.4 µM [1, 15] | activation at 2 µM [1, 16] | other results |
| --- | --- | --- | --- | --- | --- | --- | --- | --- | --- | --- | --- | --- |
| COc1ccccc1OCC(O)CN1CCN(CC(=O)Nc2c(C)cccc2C)CC1 (stereo not shown) [Ranolazine] | 11.6% |  |  |  |  |  |  |  |  |  |  | activation at 10 µM ([1]; 10 uM test compound, relative to quetiapine, read-out: OL differentiation, 10 uM (% Quet)): -35.3%; viability at 0.1 µM (expanded OPCs; [3]): 99.2%; viability at 1 µM (expanded OPCs; [4]): 92.2%; viability at 10 µM (expanded OPCs; [5]): 95.9% |
| CC(Cc1ccccc1)(NC(=O)CN)c1ccccc1 (stereo not shown) [Remacemide] | 4.8% | 5.6% | 113% | 88.6% | 44.7% |  |  |  |  |  |  |  |
| CN1CCN2c3ncccc3Cc3ccccc3C2C1 (stereo not shown) [Remergil] |  |  |  |  |  |  |  |  |  |  |  | 2 uM (% Quet) ([1]; test compound at 2 uM, MBP expression relative to quetiapine, NCC library screen): -49.3 % Quet; 10 uM (% Quet) ([1]; test compound at 10 uM, MBP expression relative to quetiapine, NCC library screen): -63.5 % Quet; 0.1 µM (% DMSO) (expanded OPCs): 90.1 % DMSO; 1 µM (% DMSO) (expanded OPCs): 82.0 % DMSO; 10 µM (% DMSO) (expanded OPCs): 62.7 % DMSO |
| CCOc1cc(CC(=O)N[C@@H](CC(C)C)c2ccccc2N2CCCCC2)ccc1C(=O)O [Repaglinide] |  |  | 90.5% | 96.8% | 125% | 13.8% |  |  |  |  |  | activation at 10 µM [1, 11]: -23.7% |
| Oc1ccc(/C=C/c2cc(O)cc(O)c2)cc1 [Resveratrol] |  |  | 83.2% | 87.6% | 76.7% | -34.1% |  |  |  |  |  | activation at 10 µM [1, 11]: -128% |
| CC1=C(/C=C/C(C)=C/C=C/C(C)=C/C(=O)O)C(C)(C)CCC1 [Retinoic Acid] |  |  |  |  |  | 128% | 144.5 % DMSO | 188.5 % DMSO | 58.3 % DMSO |  |  | activation at 0.4 µM ([1]; test compound at 0.4 uM, NCC library screen, relative to quetiapine, read-out: 0.4 uM (% Quet)): -23% |
| NC(=O)c1ncn([C@@H]2O[C@H](CO)[C@@H](O)[C@H]2O)n1 [Ribavirin] |  |  |  |  |  |  | 96.2 % DMSO | 92.8 % DMSO | 76.9 % DMSO | 8.6% | 6.7% |  |
| CO[C@H]1/C=C/O[C@@]2(C)Oc3c(C)c(O)c4c(c3C2=O)C2=NC3(CCN(CC(C)C)CC3)NC2=C(NC(=O)/C(C)=C\C=C\[C@H](C)[C@H](O)[C@@H](C)[C@@H](O)[C@@H](C)[C@H](OC(C)=O)[C@@H]1C)C4=O [Rifabutin] | -31.8% | 16.3% |  |  |  |  | 95.3 % DMSO | 77.1 % DMSO | 32.3 % DMSO | -0.04% | -15.6% | viability at 0.1 µM (expanded OPCs; [3]): 86.7%; viability at 1 µM (expanded OPCs; [4]): 79.7%; viability at 10 µM (expanded OPCs; [5]): 37% |
| CO[C@H]1/C=C/O[C@@]2(C)Oc3c(C)c(O)c4c(O)c(c(/C=N/N5CCN(C)CC5)c(O)c4c3C2=O)NC(=O)/C(C)=C\C=C\[C@H](C)[C@H](O)[C@@H](C)[C@@H](O)[C@@H](C)[C@H](OC(C)=O)[C@@H]1C [Rifampicin] |  |  |  |  |  | -69.7% | 91.7 % DMSO | 85.6 % DMSO | 62.3 % DMSO |  |  | activation at 10 µM [1, 11]: -188% |
| CO[C@H]1/C=C/O[C@@]2(C)Oc3c(C)c(O)c4c(O)c(c(/C=N/N5CCN(C6CCCC6)CC5)c(O)c4c3C2=O)NC(=O)/C(C)=C\C=C\[C@H](C)[C@H](O)[C@@H](C)[C@@H](O)[C@@H](C)[C@H](OC(C)=O)[C@@H]1C [Rifapentine] | -70.1% | -16.7% | 94.8% | 73% | 25.3% |  | 89.9 % DMSO | 78.4 % DMSO | 40.0 % DMSO | -18.6% | -118% |  |
| CO[C@H]1/C=C/O[C@@]2(C)Oc3c(C)c(O)c4c(O)c(c5c(nc6cc(C)ccn65)c4c3C2=O)NC(=O)/C(C)=C\C=C\[C@H](C)[C@H](O)[C@@H](C)[C@@H](O)[C@@H](C)[C@H](OC(C)=O)[C@@H]1C [Rifaximin] | -77.9% | -15.2% | 101% | 69.4% | 21% |  |  |  |  |  |  |  |
| CC(N)C12CC3CC(CC(C3)C1)C2 (stereo not shown) [Rimantadine] |  |  |  |  |  |  | 89.9 % DMSO | 83.2 % DMSO | 32.9 % DMSO | -17.2% | -11.2% |  |
